Measured values published in patent US20240365781A1, “SYNERGISTICALLY EFFECTIVE HERBICIDE COMPOSITION COMPRISING PELARGONIC ACID AND FLAZASULFURON” (Belchim Crop Protection NV, priority 2017, published 2024).

How the values were obtained:
Type in all cases: in vivo
Lolium sp. = assay: post-emergence test, field trial (Examples 1-5); conditions: 7 d, FT; pelargonic acid 5440 g/ha, flazasulfuron 50 g/ha; 8 L/ha
From the text: (§1) The expected activity of a given combination of two or three herbicides can be calculated as follows according to a calculation method by Colby (cf. COLBY, S. R.: “Calculating synergistic and antagonistic responses of herbicide combinations”, • Weeds 15, pages 20-22, 1967): • If X=% damage by herbicide (A) at an application rate of m g/ha, • Y=% damage by herbicide (B) at an application rate of n g/ha, • E=the expected damage by herbicides (A) and (B) at application rates of m and n […] and, • then for a combination:
(§2) Individual compositions comprising pelargonic acid or flazasulfuron are compared with a herbicide composition according to the invention comprising pelargonic acid and flazasulfuron.
(§3) Herbicidal activity was determined by performing a post-emergence test. […] The corresponding mixture was in the form of a spray liquor. Besides, spray liquors of individual compositions comprising pelargonic acid or flazasulfuron were used.
(§4) Tests were performed on test fields (field trials) or in pots (pot trials).

Digitaria sang = assay: post-emergence test, field trial (Examples 1-5); conditions: FT, pelargonic acid 5440 g/ha, flazasulfuron 50 g/ha, 8 L/ha
From the text: as §1, §2, §3, §4

Sonchus oleraceus L. = assay: post-emergence test, field trial (Examples 1-5); conditions: FT, pelargonic acid 5440 g/ha, flazasulfuron 50 g/ha, 8 L/ha
From the text: as §1, §2, §3, §4

Veronica persica = assay: post-emergence test, field trial (Examples 1-5); conditions: FT, pelargonic acid 5440 g/ha, flazasulfuron 50 g/ha, 8 L/ha
From the text: as §1, §2, §3, §4

Plantago major = assay: post-emergence test, field trial (Examples 1-5); conditions: FT
From the text: as §1, §2, §3, §4

Anagallis arvensis = assay: post-emergence test, field trial (Examples 1-5); conditions: 3 d, FT; pelargonic acid 5440 g/ha, flazasulfuron 50 g/ha; 8 L/ha
From the text: as §1, §2, §3, §4

Echinochloa crusgalli = assay: post-emergence test, field trial (Examples 1-5); conditions: FT
From the text: as §1, §2, §3, §4

Convolvulus arvensis L. = assay: post-emergence test, field trial (Examples 1-5); conditions: 3 d, FT; pelargonic acid 5440 g/ha, flazasulfuron 50 g/ha; 8 L/ha
From the text: as §1, §2, §3, §4

Erodium cicuta = assay: post-emergence test, field trial (Examples 1-5); conditions: 28 d, FT; pelargonic acid 5440 g/ha, flazasulfuron 50 g/ha; 8 L/ha
From the text: as §1, §2, §3, §4

Chenopodium album = assay: post-emergence test, field trial (Examples 1-5); conditions: FT
From the text: as §1, §2, §3, §4

Amaranthus retroflexus = assay: post-emergence field trial under rows of vines, 150-200 L water/ha (Examples 6-9); conditions: flazasulfuron 40 g/ha
Erigeron sumatrensis = assay: as above; conditions: flazasulfuron 40 g/ha
[1] = 3 d, pelargonic acid 10880 g/ha, flazasulfuron 25 g/ha, 16 L/ha
[2] = 3 d, pelargonic acid 10880 g/ha, flazasulfuron 50 g/ha, 16 L/ha
[3] = 3 d, pelargonic acid 21760 g/ha, flazasulfuron 50 g/ha, 32 L/ha
[4] = 7 d, pelargonic acid 10880 g/ha, flazasulfuron 25 g/ha, 16 L/ha
[5] = 7 d, pelargonic acid 10880 g/ha, flazasulfuron 50 g/ha, 16 L/ha
[6] = 7 d, pelargonic acid 21760 g/ha, flazasulfuron 25 g/ha, 32 L/ha
[7] = 7 d, pelargonic acid 21760 g/ha, flazasulfuron 50 g/ha, 32 L/ha
[8] = 13 d, pelargonic acid 10880 g/ha, flazasulfuron 25 g/ha, 16 L/ha
[9] = 13 d, pelargonic acid 10880 g/ha, flazasulfuron 50 g/ha, 16 L/ha
[10] = 13 d, pelargonic acid 21760 g/ha, flazasulfuron 25 g/ha, 32 L/ha
[11] = 13 d, pelargonic acid 21760 g/ha, flazasulfuron 50 g/ha, 32 L/ha
[12] = 23 d, pelargonic acid 21760 g/ha, flazasulfuron 25 g/ha, 32 L/ha
[13] = 23 d, pelargonic acid 21760 g/ha, flazasulfuron 50 g/ha, 32 L/ha
[14] = 30 d, pelargonic acid 10880 g/ha, flazasulfuron 25 g/ha, 16 L/ha
[15] = 30 d, pelargonic acid 10880 g/ha, flazasulfuron 50 g/ha, 16 L/ha
[16] = 30 d, pelargonic acid 21760 g/ha, flazasulfuron 25 g/ha, 32 L/ha
[17] = 30 d, pelargonic acid 21760 g/ha, flazasulfuron 50 g/ha, 32 L/ha
[18] = 38 d, pelargonic acid 10880 g/ha, flazasulfuron 25 g/ha, 16 L/ha
[19] = 38 d, pelargonic acid 10880 g/ha, flazasulfuron 50 g/ha, 16 L/ha
[20] = 38 d, pelargonic acid 21760 g/ha, flazasulfuron 25 g/ha, 32 L/ha
[21] = 38 d, pelargonic acid 21760 g/ha, flazasulfuron 50 g/ha, 32 L/ha
[22] = 3 d, pelargonic acid 21760 g/ha, flazasulfuron 25 g/ha, 32 L/ha
[23] = 23 d, pelargonic acid 10880 g/ha, flazasulfuron 25 g/ha, 16 L/ha

## COc1cc(OC)nc(NC(=O)NS(=O)(=O)c2ncccc2C(F)(F)F)n1 [Flazasulfuron, 1-(4,6-dimethoxypyrimidin-2-yl)-3-(3-trifluoromethyl-2-pyridylsulfonyl)urea]
Lolium sp.
  herbicidal effect: 2.5%
Digitaria sang; 3 d
  herbicidal effect: 2.5%
Digitaria sang; 7 d
  herbicidal effect: 13.3%
Digitaria sang; 12 d
  herbicidal effect: 37.3%
Digitaria sang; 72 d
  herbicidal effect: 3.8%
Sonchus oleraceus L.; 3 d
  herbicidal effect: 0%
Sonchus oleraceus L.; 7 d
  herbicidal effect: 0%
Sonchus oleraceus L.; 13 d
  herbicidal effect: 2.5%
Sonchus oleraceus L.; 28 d
  herbicidal effect: 12.5%
Sonchus oleraceus L.; 58 d
  herbicidal effect: 10%
Veronica persica; 3 d
  herbicidal effect: 2.5%
Veronica persica; 7 d
  herbicidal effect: 7.5%
Veronica persica; 56 d
  herbicidal effect: 16.3%
Plantago major; [1]
  herbicidal effect: 0%
Plantago major; [2]
  herbicidal effect: 10%
Plantago major; [3]
  herbicidal effect: 10%
Plantago major; [4]
  herbicidal effect: 25%
Plantago major; [5]
  herbicidal effect: 0%
Plantago major; [6]
  herbicidal effect: 25%
Plantago major; [7]
  herbicidal effect: 0%
Plantago major; [8]
  herbicidal effect: 10%
Plantago major; [9]
  herbicidal effect: 20%
Plantago major; [10]
  herbicidal effect: 10%
Plantago major; [11]
  herbicidal effect: 20%
Plantago major; [12]
  herbicidal effect: 10%
Plantago major; [13]
  herbicidal effect: 0%
Plantago major; [14]
  herbicidal effect: 35%
Plantago major; [15]
  herbicidal effect: 0%
Plantago major; [16]
  herbicidal effect: 35%
Plantago major; [17]
  herbicidal effect: 0%
Plantago major; [18]
  herbicidal effect: 10%
Plantago major; [19]
  herbicidal effect: 10%
Plantago major; [20]
  herbicidal effect: 10%
Plantago major; [21]
  herbicidal effect: 10%
Anagallis arvensis
  herbicidal effect: 1.3%
Echinochloa crusgalli; 3 d, pelargonic acid 5440 g/ha, flazasulfuron 50 g/ha, 8 L/ha
  herbicidal effect: 2.5%
Echinochloa crusgalli; [1]
  herbicidal effect: 0%
Echinochloa crusgalli; [22]
  herbicidal effect: 0%
Echinochloa crusgalli; 7 d, pelargonic acid 5440 g/ha, flazasulfuron 50 g/ha, 8 L/ha
  herbicidal effect: 13.3%
Echinochloa crusgalli; [4]
  herbicidal effect: 40%
Echinochloa crusgalli; [5]
  herbicidal effect: 20%
Echinochloa crusgalli; [7]
  herbicidal effect: 20%
Echinochloa crusgalli; 12 d, pelargonic acid 5440 g/ha, flazasulfuron 50 g/ha, 8 L/ha
  herbicidal effect: 37.3%
Echinochloa crusgalli; [8]
  herbicidal effect: 40%
Echinochloa crusgalli; [9]
  herbicidal effect: 30%
Echinochloa crusgalli; [10]
  herbicidal effect: 40%
Echinochloa crusgalli; [11]
  herbicidal effect: 30%
Echinochloa crusgalli; [23]
  herbicidal effect: 40%
Echinochloa crusgalli; 23 d, pelargonic acid 10880 g/ha, flazasulfuron 50 g/ha, 16 L/ha
  herbicidal effect: 0%
Echinochloa crusgalli; [12]
  herbicidal effect: 40%
Echinochloa crusgalli; [13]
  herbicidal effect: 0%
Echinochloa crusgalli; 26 d, pelargonic acid 5440 g/ha, flazasulfuron 50 g/ha, 8 L/ha
  herbicidal effect: 99%
Echinochloa crusgalli; [14]
  herbicidal effect: 90%
Echinochloa crusgalli; [16]
  herbicidal effect: 90%
Echinochloa crusgalli; [18]
  herbicidal effect: 90%
Echinochloa crusgalli; [20]
  herbicidal effect: 90%
Echinochloa crusgalli; 72 d, pelargonic acid 5440 g/ha, flazasulfuron 50 g/ha, 8 L/ha
  herbicidal effect: 96.3%
Convolvulus arvensis L.
  herbicidal effect: 0%
Erodium cicuta
  herbicidal effect: 95%
Chenopodium album; [1]
  herbicidal effect: 10%
Chenopodium album; [2]
  herbicidal effect: 15%
Chenopodium album; [22]
  herbicidal effect: 10%
Chenopodium album; [3]
  herbicidal effect: 15%
Chenopodium album; [4]
  herbicidal effect: 40%
Chenopodium album; [5]
  herbicidal effect: 0%
Chenopodium album; [6]
  herbicidal effect: 40%
Chenopodium album; [7]
  herbicidal effect: 0%
Chenopodium album; [8]
  herbicidal effect: 15%
Chenopodium album; [9]
  herbicidal effect: 0%
Chenopodium album; [10]
  herbicidal effect: 15%
Chenopodium album; [11]
  herbicidal effect: 0%
Chenopodium album; [23]
  herbicidal effect: 20%
Chenopodium album; [12]
  herbicidal effect: 20%
Chenopodium album; [13]
  herbicidal effect: 0%
Chenopodium album; [14]
  herbicidal effect: 20%
Chenopodium album; [15]
  herbicidal effect: 0%
Chenopodium album; [16]
  herbicidal effect: 20%
Chenopodium album; [17]
  herbicidal effect: 0%
Chenopodium album; [18]
  herbicidal effect: 20%
Chenopodium album; [19]
  herbicidal effect: 0%
Chenopodium album; [20]
  herbicidal effect: 20%
Chenopodium album; [21]
  herbicidal effect: 0%
Amaranthus retroflexus; 7 d, pelargonic acid 5440 g/ha
  herbicidal effect: 23%
Amaranthus retroflexus; 7 d, pelargonic acid 10880 g/ha
  herbicidal effect: 23%
Amaranthus retroflexus; 14 d, pelargonic acid 5440 g/ha
  herbicidal effect: 23%
Amaranthus retroflexus; 14 d, pelargonic acid 10880 g/ha
  herbicidal effect: 23%
Amaranthus retroflexus; 31 d, pelargonic acid 5440 g/ha
  herbicidal effect: 53%
Amaranthus retroflexus; 31 d, pelargonic acid 6800 g/ha
  herbicidal effect: 53%
Amaranthus retroflexus; 31 d, pelargonic acid 8160 g/ha
  herbicidal effect: 53%
Amaranthus retroflexus; 31 d, pelargonic acid 10880 g/ha
  herbicidal effect: 53%
Amaranthus retroflexus; 58 d, pelargonic acid 5440 g/ha
  herbicidal effect: 78%
Amaranthus retroflexus; 58 d, pelargonic acid 6800 g/ha
  herbicidal effect: 78%
Amaranthus retroflexus; 58 d, pelargonic acid 8160 g/ha
  herbicidal effect: 78%
Amaranthus retroflexus; 58 d, pelargonic acid 10880 g/ha
  herbicidal effect: 78%
Erigeron sumatrensis; 5 d, pelargonic acid 5440 g/ha
  herbicidal effect: 18%
Erigeron sumatrensis; 5 d, pelargonic acid 8160 g/ha
  herbicidal effect: 18%
Erigeron sumatrensis; 15 d, pelargonic acid 5440 g/ha
  herbicidal effect: 98%
Erigeron sumatrensis; 15 d, pelargonic acid 6800 g/ha
  herbicidal effect: 98%
Erigeron sumatrensis; 15 d, pelargonic acid 8160 g/ha
  herbicidal effect: 98%
